From PMC10439133, “Biosynthesis of ansamitocin P-3 incurs stress on the producing strain Actinosynnema pretiosum at multiple targets” (Communications Biology, 2023)
pKd: −log10 of the molar value.

Key:
[1] = target: T1, deoxythymidine diphosphate glucose-4,6-dehydratase (dTGD) (Actinosynnema pretiosum, UniProt A0A290ZDY1); assay: SPR (Biacore 8K, CM5 chip); also enzyme inhibition with KI =[…]; type: binding
T1 construct: gene rfbB; recombinant His-tagged, from pET30a in E. coli BL21(DE3)
T1 sequence (A0A290ZDY1 1-330): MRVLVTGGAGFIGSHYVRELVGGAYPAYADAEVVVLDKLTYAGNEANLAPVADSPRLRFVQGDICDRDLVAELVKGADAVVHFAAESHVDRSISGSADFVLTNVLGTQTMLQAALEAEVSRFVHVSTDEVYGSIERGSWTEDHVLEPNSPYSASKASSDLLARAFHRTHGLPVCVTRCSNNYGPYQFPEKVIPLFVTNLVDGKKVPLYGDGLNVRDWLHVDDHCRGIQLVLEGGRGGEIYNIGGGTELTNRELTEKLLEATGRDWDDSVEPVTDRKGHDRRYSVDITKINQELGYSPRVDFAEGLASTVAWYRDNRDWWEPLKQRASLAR

[2] = target: T2, flavin-dependent thymidylate synthase (FDTS) (Actinosynnema pretiosum, UniProt A0A290ZCH3); assay: SPR (Biacore 8K, CM5 chip); also NADPH oxidase inhibition with KI =[…]; type: binding
T2 construct: gene thyX; recombinant His-tagged, from pET30a in E. coli BL21(DE3)
T2 sequence (A0A290ZCH3 1-250): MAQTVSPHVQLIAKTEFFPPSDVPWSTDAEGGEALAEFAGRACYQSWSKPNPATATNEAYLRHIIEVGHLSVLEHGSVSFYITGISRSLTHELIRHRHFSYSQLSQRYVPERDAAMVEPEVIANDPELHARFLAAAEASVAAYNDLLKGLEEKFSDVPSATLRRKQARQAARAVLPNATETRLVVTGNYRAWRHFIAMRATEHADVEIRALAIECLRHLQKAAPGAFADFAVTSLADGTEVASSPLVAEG

For COc1cc2cc(c1Cl)N(C)C(=O)C[C@H](OC(=O)C(C)C)[C@]1(C)O[C@H]1[C@H](C)[C@@H]1C[C@@](O)(NC(=O)O1)[C@H](OC)/C=C/C=C(\C)C2 [AP-3, ansamitocin P-3], the pKd [1] was 3.44 and the pKd [2] was 4.18.
